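These data come from cells grown in 96-well plates and exposed to compound for 48 hours at five concentrations. TGI: total growth inhibition.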 Where a SMILES comes first, the peptide text is derived from it. The star is where a group is joined. Cbz = O=C(OCc1ccccc1)*
Legend:
Experiment in all cases: NCI-60 cell line screen, 48 h
PC-3 prostate = tested on: PC-3 prostate
SNB-19 CNS = tested on: SNB-19 CNS
K-562 leukemia = tested on: K-562 leukemia
NCI-H226 lung = tested on: NCI-H226 lung
M14 melanoma = tested on: M14 melanoma
HOP-62 NSCLC = tested on: HOP-62 NSCLC
ACHN renal = tested on: ACHN renal
HS 578T breast = tested on: HS 578T breast
SF-539 CNS = tested on: SF-539 CNS
SK-OV-3 ovarian = tested on: SK-OV-3 ovarian
RPMI-8226 leukemia = tested on: RPMI-8226 leukemia
DU-145 prostate = tested on: DU-145 prostate
SF-268 CNS = tested on: SF-268 CNS
KM12 colon = tested on: KM12 colon
SR leukemia = tested on: SR leukemia

## CCOC(=O)c1nc(SC)sc1NC(=O)c1ccc(OC)cc1
PC-3 prostate
  TGI: > 100 µM
SNB-19 CNS
  TGI: > 100 µM
K-562 leukemia
  TGI: > 100 µM
NCI-H226 lung
  TGI: > 100 µM
M14 melanoma
  TGI: > 100 µM
HOP-62 NSCLC
  TGI: > 100 µM
ACHN renal
  TGI: > 100 µM
HS 578T breast
  TGI: > 100 µM
SF-539 CNS
  TGI: 34.9 µM
SK-OV-3 ovarian
  TGI: > 100 µM
RPMI-8226 leukemia
  TGI: > 100 µM
DU-145 prostate
  TGI: > 100 µM
SF-268 CNS
  TGI: > 100 µM
KM12 colon
  TGI: > 100 µM

## Cn1c2ccccc2n2c(=O)c(-c3ccc(Cl)cc3)nnc12
SR leukemia
  TGI: > 100 µM
SNB-19 CNS
  TGI: > 100 µM
NCI-H226 lung
  TGI: > 100 µM
M14 melanoma
  TGI: > 100 µM
ACHN renal
  TGI: > 100 µM
HS 578T breast
  TGI: > 100 µM
SF-539 CNS
  TGI: > 100 µM
DU-145 prostate
  TGI: > 100 µM
SF-268 CNS
  TGI: > 100 µM
KM12 colon
  TGI: > 100 µM

## CCOC(=O)c1nc2ccccc2nc1Nc1cc(OC)c(OC)c(OC)c1
SR leukemia
  TGI: > 100 µM
SNB-19 CNS
  TGI: > 100 µM
K-562 leukemia
  TGI: > 100 µM
M14 melanoma
  TGI: > 100 µM
HOP-62 NSCLC
  TGI: > 100 µM
ACHN renal
  TGI: > 100 µM
HS 578T breast
  TGI: > 100 µM
SF-539 CNS
  TGI: > 100 µM
SK-OV-3 ovarian
  TGI: > 100 µM
RPMI-8226 leukemia
  TGI: > 100 µM
DU-145 prostate
  TGI: > 100 µM
SF-268 CNS
  TGI: > 100 µM
KM12 colon
  TGI: > 100 µM

## CN(C)N1C(=C(C#N)C#N)C(c2ccccc2)CC1C#N (configuration not stated)
PC-3 prostate
  TGI: > 100 µM
SNB-19 CNS
  TGI: > 100 µM
K-562 leukemia
  TGI: > 100 µM
NCI-H226 lung
  TGI: > 100 µM
M14 melanoma
  TGI: > 100 µM
HOP-62 NSCLC
  TGI: > 100 µM
ACHN renal
  TGI: > 100 µM
HS 578T breast
  TGI: > 100 µM
SF-539 CNS
  TGI: > 100 µM
SK-OV-3 ovarian
  TGI: > 100 µM
RPMI-8226 leukemia
  TGI: > 100 µM
DU-145 prostate
  TGI: > 100 µM
SF-268 CNS
  TGI: > 100 µM
KM12 colon
  TGI: > 100 µM

## CCOC(=O)c1ccc(-c2onc(C)c2Br)[nH]1
PC-3 prostate
  TGI: > 100 µM
SNB-19 CNS
  TGI: > 100 µM
K-562 leukemia
  TGI: > 100 µM
M14 melanoma
  TGI: > 100 µM
HOP-62 NSCLC
  TGI: > 100 µM
ACHN renal
  TGI: > 100 µM
HS 578T breast
  TGI: > 100 µM
SK-OV-3 ovarian
  TGI: > 100 µM
RPMI-8226 leukemia
  TGI: > 100 µM
DU-145 prostate
  TGI: > 100 µM
SF-268 CNS
  TGI: > 100 µM
KM12 colon
  TGI: > 100 µM

## CN1CCN(c2n[nH]c(=O)c3c2nnn3Cc2ccccc2)CC1
SR leukemia
  TGI: > 100 µM
PC-3 prostate
  TGI: 37.1 µM
SNB-19 CNS
  TGI: > 100 µM
K-562 leukemia
  TGI: > 100 µM
M14 melanoma
  TGI: > 100 µM
HOP-62 NSCLC
  TGI: > 100 µM
ACHN renal
  TGI: > 100 µM
RPMI-8226 leukemia
  TGI: > 100 µM
DU-145 prostate
  TGI: > 100 µM
SF-268 CNS
  TGI: > 100 µM
KM12 colon
  TGI: > 100 µM

## CN(C)c1ccc(-c2c(C#N)c(-c3ccccc3)n(NS(=O)(=O)c3ccccc3)c(=O)c2C#N)cc1
PC-3 prostate
  TGI: > 100 µM
SNB-19 CNS
  TGI: 83.5 µM
K-562 leukemia
  TGI: > 100 µM
NCI-H226 lung
  TGI: > 100 µM
M14 melanoma
  TGI: > 100 µM
HOP-62 NSCLC
  TGI: > 100 µM
ACHN renal
  TGI: > 100 µM
HS 578T breast
  TGI: > 100 µM
SF-539 CNS
  TGI: > 100 µM
SK-OV-3 ovarian
  TGI: > 100 µM
RPMI-8226 leukemia
  TGI: 48.6 µM
SF-268 CNS
  TGI: > 100 µM
KM12 colon
  TGI: > 100 µM

## CCOC(=O)CCC(NC(=O)C(CC(=O)OC)NC(=O)OCc1ccccc1)C(=O)NC(CC(=O)OC)C(=O)NC(CCC(=O)OCC)C(=O)NC(CC(=O)OC)C(=O)NC(CCC(=O)OCC)C(=O)NC(CC(=O)OCC)C(=O)OCC (configuration not stated) (Cbz-D(OMe)E(OEt)D(OMe)E(OEt)D(OMe)E(OEt)D(OEt)-OEt; configuration not given here)
SR leukemia
  TGI: > 100 µM
PC-3 prostate
  TGI: > 100 µM
SNB-19 CNS
  TGI: > 100 µM
K-562 leukemia
  TGI: > 100 µM
NCI-H226 lung
  TGI: > 100 µM
HOP-62 NSCLC
  TGI: > 100 µM
ACHN renal
  TGI: > 100 µM
RPMI-8226 leukemia
  TGI: > 100 µM
DU-145 prostate
  TGI: > 100 µM

## CC(C)C(Sc1nc(-c2ccccc2)c(-c2ccccc2)[nH]1)C(=O)N/N=C/c1ccc(Cl)cc1 (configuration not stated)
SR leukemia
  TGI: > 100 µM
SNB-19 CNS
  TGI: > 100 µM
NCI-H226 lung
  TGI: 41.5 µM
M14 melanoma
  TGI: 33.7 µM
HOP-62 NSCLC
  TGI: 42.5 µM
ACHN renal
  TGI: > 100 µM
SF-539 CNS
  TGI: 36.4 µM
SK-OV-3 ovarian
  TGI: 67 µM
RPMI-8226 leukemia
  TGI: 65.4 µM
SF-268 CNS
  TGI: 57.6 µM
KM12 colon
  TGI: 44.7 µM
